# Measured values reported in US20110039795A1, “2'-O,3'-N-BRIDGED MACROLIDES” (priority 2008, published 2011).
# Tested on: CD1 mice
# Assay: Phorbol 12-myristate 13-acetate induced ear edema in CD1 mice
# Type: in vivo
# Conditions: Mus musculus, topical, 6 h; applied topically once in a dose 500 μg/ear; PMA induced ear edema
# Description: Phorbol 12-Myristate 13-Acetate Induced Ear Edema in CD1 Mice
# Male CD1 mice (Charles River, France) weighing 30-40 g are randomly grouped (n=8 in test group of which the untreated ear serves as negative control; 8 in positive control group which also serves as their own negative control group). Test compounds, as well as vehicle (Trans-phase Delivery system, containing benzyl alcohol 10%, acetone 40% and isopropanol 50%) (all from Kemika, Croatia), are administered topically to the internal surface of the left ear 30 minutes prior to administration of phorbol 12-myristate 13-acetate (PMA) (Sigma, USA). Test compounds are administered at a dose 500 μg in 15 μL per ear. 30 minutes later, 0.01% PMA solution in acetone is applied topically to the inner surface of the left ear of each animal in a volume of 12 μL per ear. During the treatment and challenge, animals are anesthetized with anesthesia by inhalation. 6 h following challenge, animals are euthanized by intraperitoneal thiopental injection (PLIVA, Croatia). For assessing the auricular edema, 8 mm discs are cut out of left and right auricular pinna and weighed. The degree of edema is calculated by subtracting the weight of 8 mm disc of the untreated ear from that of the treated contralateral ear. The inhibition of edema in the treated animals is expressed as percentage compared to control mice.
row,SMILES,inhibition in vivo at 500 µg/ear
1,"CCN=C1O[C@H]2[C@H](O[C@@H]3[C@@H](C)[C@H](O[C@H]4C[C@@](C)(OC)[C@@H](O)[C@H](C)O4)[C@@H](C)C(=O)O[C@H](CC)[C@@](C)(O)[C@H](O)[C@@H](C)C(=O)[C@H](C)C[C@@]3(C)OC)O[C@H](C)C[C@@H]2N1C (single isomer, unassigned) [Example 14, 2′-O,3′-N-(Carbonimidoyl)-3′-N-demethyl-N′-ethyl-6-O-methyl-erythromycin A]",> 50%
2,"CC[C@H]1OC(=O)[C@H](C)[C@@H](O[C@H]2C[C@@](C)(OC)[C@@H](O)[C@H](C)O2)[C@H](C)[C@@H](O[C@@H]2O[C@H](C)C[C@H]3[C@H]2OC(=Nc2cccc4ccccc24)N3C)[C@](C)(O)C[C@@H](C)CN(C)[C@H](C)[C@@H](O)[C@]1(C)O (single isomer, unassigned) [Example 2, 2′-O,3′-N-(Carbonimidoyl)-3′-N-demethyl-9-deoxo-9a-methyl-N′-(1-naphthyl)-9a-aza-9a-homoerythromycin A]",> 50%
3,"CC[C@H]1OC(=O)[C@H](C)[C@@H](O[C@H]2C[C@@](C)(OC)[C@@H](O)[C@H](C)O2)[C@H](C)[C@@H](O[C@@H]2O[C@H](C)C[C@H]3[C@H]2OC(=NCCCN(CC)CC)N3C)[C@](C)(OC)C[C@@H](C)C(=O)N[C@H](C)[C@@H](O)[C@]1(C)O (single isomer, unassigned) [Example 8, 2′-O,3′-N-(Carbonimidoyl)-3′-N-demethyl-N′-[3-(diethylamino)propyl]-6-O-methyl-9a-aza-9a-homoerythromycin A]",> 50%
4,"CC[C@H]1OC(=O)[C@H](C)[C@@H](O[C@H]2C[C@@](C)(OC)[C@@H](O)[C@H](C)O2)[C@H](C)[C@@H](O[C@@H]2O[C@H](C)C[C@H]3[C@H]2OC(=NC(C)C)N3C)[C@](C)(OC)C[C@@H](C)C(=O)N[C@H](C)[C@@H](O)[C@]1(C)O (single isomer, unassigned) [Example 7, 2′-O,3′-N-(Carbonimidoyl)-3′-N-demethyl-N′-isopropyl-6-O-methyl-9a-aza-9a-homoerythromycin A]",> 50%
5,"CC[C@H]1OC(=O)[C@H](C)[C@@H](O[C@H]2C[C@@](C)(OC)[C@@H](O)[C@H](C)O2)[C@H](C)[C@@H](O[C@@H]2O[C@H](C)C[C@H]3[C@H]2OC(=NC)N3C)[C@](C)(OC)C[C@@H](C)C(=O)[C@H](C)[C@@H](O)[C@]1(C)O (single isomer, unassigned) [Example 13, 2′-O,3′-N-(Carbonimidoyl)-3′-N-demethyl-N′-methyl-6-O-methyl-erythromycin A]",> 50%
6,"CC[C@H]1OC(=O)[C@H](C)[C@@H](O[C@H]2C[C@@](C)(OC)[C@@H](O)[C@H](C)O2)[C@H](C)[C@@H](O[C@@H]2O[C@H](C)C[C@H]3[C@H]2OC(=NCc2ccccc2)N3C)[C@](C)(O)C[C@@H](C)CN(C)[C@H](C)[C@@H](O)[C@]1(C)O (single isomer, unassigned) [Example 1, N′-Benzyl-2′-O,3′-N-(carbonimidoyl)-3′-N-demethyl-9-deoxo-9a-methyl-9a-aza-9a-homoerythromycin A]",> 50%
7,"CCN=C1O[C@H]2[C@H](O[C@@H]3[C@@H](C)[C@H](O[C@H]4C[C@@](C)(OC)[C@@H](O)[C@H](C)O4)[C@@H](C)C(=O)O[C@H](CC)[C@@](C)(O)[C@H](O)[C@@H](C)NC(=O)[C@H](C)C[C@@]3(C)OC)O[C@H](C)C[C@@H]2N1C (single isomer, unassigned) [Example 15, 2′-O,3′-N-(Carbonimidoyl)-3′-N-demethyl-N′-ethyl-6-O-methyl-9a-aza-9a-homoerythromycin A]",> 50%
8,"CC[C@H]1OC(=O)[C@H](C)[C@@H](O[C@H]2C[C@@](C)(OC)[C@@H](O)[C@H](C)O2)[C@H](C)[C@@H](O[C@@H]2O[C@H](C)C[C@H]3[C@H]2OC(=NC(C)C)N3C)[C@](C)(OC)C[C@@H](C)C(=O)[C@H](C)[C@@H](O)[C@]1(C)O (single isomer, unassigned) [Example 11, 2′-O,3′-N-(Carbonimidoyl)-3′-N-demethyl-N′-isopropyl-6-O-methyl-erythromycin A]",> 50%
9,"CC[C@H]1OC(=O)[C@H](C)[C@@H](O[C@H]2C[C@@](C)(OC)[C@@H](O)[C@H](C)O2)[C@H](C)[C@@H](O[C@@H]2O[C@H](C)C[C@H]3[C@H]2O/C(=N/CCCN(CC)CC)N3C)[C@](C)(OC)C[C@@H](C)C(=O)[C@H](C)[C@@H](O)[C@]1(C)O (single isomer, unassigned) [Example 12, 2′-O,3′-N-(Carbonimidoyl)-3′-N-demethyl-N′-[3-(diethylamino)propyl]-6-O-methyl-erythromycin A]",> 50%
10,"CC[C@H]1OC(=O)[C@H](C)[C@@H](O[C@H]2C[C@@](C)(OC)[C@@H](O)[C@H](C)O2)[C@H](C)[C@@H](O[C@@H]2O[C@H](C)C[C@H]3[C@H]2OC(=NC(C)C)N3C)[C@](C)(O)C[C@@H](C)CN(C)[C@H](C)[C@@H](O)[C@]1(C)O (single isomer, unassigned) [Example 3, 2′-O,3′-N-(Carbonimidoyl)-3′-N-demethyl-9-deoxo-N′-isopropyl-9a-methyl-9a-aza-9a-homoerythromycin A]",> 50%
